Measured values taken from patent publication US11912794B2, “Modulation of structured polypeptide specificity” (BicycleRD Limited, priority 2011, dated 2024).
Numbered stars: 1 amine (or outer) side, 2 acyl side, 3 side chain; on linkers, the order of the positions; unused ones are H or OH. Bridge positions count the residues as written; N and C are the ends. Square brackets hold non-standard residues; d marks the D form. Peptide text beside a SMILES is read from it. Pro(trans-4-F) = O=C(O)[C@@H]1C[C@@H](F)CN1; Dip = N[C@H](C(=O)O)C(c1ccccc1)c1ccccc1; X1 = O=C([C@@H]1Cc2ccccc2N1[*:1])[*:2]; 1Nal = N[C@@H](Cc1cccc2ccccc12)C(=O)O; TBMB = c1c(C[*:1])cc(C[*:3])cc1C[*:2]; 4Pal = N[C@@H](Cc1ccncc1)C(=O)O; Cha = N[C@@H](CC1CCCCC1)C(=O)O; Dpg = CCCC(N)(CCC)C(=O)O

Assay: Plasma stability profiling method 1 (35% plasma, MALDI-TOF, qualitative)
Type: in vitro ADME, rat
Settings: 35% rat plasma, 37 deg C, method 1, comparative estimate
Protocol: Three methods were employed to assess the stability of bicycles (peptides conjugated to molecular scaffolds) in plasma.
A rapid plasma stability profiling assay was developed that employed mass spectrometric detection (MALDI-TOF, Voyager DE, Applied Biosystems) of the parent mass, until the time when the parent peptide mass was no longer observable. Specifically, 200 uM of peptide was incubated in the presence of 35% rat or human plasma (Sera labs, using citrate as anticoagulant) at 37 deg C., which was supplemented with 1×PBS (derived from a 10×PBS Stock, Sigma). At various time points (i.e. t=0, 3, 24 hrs, henceafter daily up to 10 days), 2 uL of sample was added to 18 uL of 30 mM ammonium bicarbonate in a 1:1 mixture of acetonitrile:H2O. Samples were frozen at −80 deg C. until the time of analysis. For mass spectrometric analysis that determines the approximate detection window of the peptide, the acetonitrile:H2O-diluted sample of a given time point was spotted directly (0.7 uL) onto the MALDI plate. Matrix (alpha-cyanocinnamic acid, Sigma, prepared as a saturated solution in 1:1 acetonitrile:water containing 0.1% trifluoroacetic acid) was layered over the sample (1 uL). At a similar laser intensity setting on the MALDI TOF, the time could then be determined until parent peptide was no longer detectable. It should be noted that this is a qualitative assay serves to detect relative changes in plasma stability.

Compound	Observable in rat plasma, for days
CC(=O)N[C@H]1CSCc2cc3cc(c2)CSC[C@H](NC(=O)[C@H](CCCNC(=N)N)NC(=O)[C@H](C)NC(=O)[C@@H]2CCCN2C(=O)[C@H](Cc2cccc4ccccc24)NC(=O)[C@H](CO)NC1=O)C(=O)N[C@@H](CC(C)C)C(=O)N[C@@H](Cc1c[nH]cn1)C(=O)N[C@@H](CCC(N)=O)C(=O)N[C@@H](CC(=O)O)C(=O)N[C@@H](CC(C)C)C(=O)N[C@H](C(N)=O)CSC3 [Ac-(06-34-18) 1NAL2] (Ac-CS[1Nal]PARCLHQDLC-NH2; linker 1-7-13 via TBMB)	2 days
CC(=O)N[C@H]1CSCc2cc3cc(c2)CSC[C@H](NC(=O)[C@H](CCCNC(=N)N)NC(=O)[C@H](C)NC(=O)[C@@H]2C[C@@H](F)CN2C(=O)[C@H](Cc2c[nH]c4ccccc24)NC(=O)[C@H](CO)NC1=O)C(=O)N[C@@H](CC(C)C)C(=O)N[C@@H](Cc1c[nH]cn1)C(=O)N[C@@H](CCC(N)=O)C(=O)N[C@@H](CC(=O)O)C(=O)N[C@@H](CC(C)C)C(=O)N[C@H](C(N)=O)CSC3 [Ac-(06-34-18) 4FluoPro3] (Ac-CSW[Pro(trans-4-F)]ARCLHQDLC-NH2; linker 1-7-13 via TBMB)	2 days
CC(=O)N[C@H]1CSCc2cc3cc(c2)CSC[C@H](NC(=O)[C@H](CCCNC(=N)N)NC(=O)[C@H](C)NC(=O)[C@@H]2CCCN2C(=O)[C@H](C(c2ccccc2)c2ccccc2)NC(=O)[C@H](CO)NC1=O)C(=O)N[C@@H](CC(C)C)C(=O)N[C@@H](Cc1c[nH]cn1)C(=O)N[C@@H](CCC(N)=O)C(=O)N[C@@H](CC(=O)O)C(=O)N[C@@H](CC(C)C)C(=O)N[C@H](C(N)=O)CSC3 [Ac-(06-34-18) 3,3-DPA2] (Ac-CS[Dip]PARCLHQDLC-NH2; linker 1-7-13 via TBMB)	2 days
CC(=O)N[C@H]1CSCc2cc3cc(c2)CSC[C@H](NC(=O)[C@H](CCCNC(=N)N)NC(=O)[C@H](C)NC(=O)[C@@H]2CCCN2C(=O)[C@H](Cc2ccncc2)NC(=O)[C@H](CO)NC1=O)C(=O)N[C@@H](CC(C)C)C(=O)N[C@@H](Cc1c[nH]cn1)C(=O)N[C@@H](CCC(N)=O)C(=O)N[C@@H](CC(=O)O)C(=O)N[C@@H](CC(C)C)C(=O)N[C@H](C(N)=O)CSC3 [Ac-(06-34-18) 4Pal2] (Ac-CS[4Pal]PARCLHQDLC-NH2; linker 1-7-13 via TBMB)	2 days

Other lines, results leading:

Observable in rat plasma, for days	Compound
2 days	CC(=O)N[C@H]1CSCc2cc3cc(c2)CSC[C@H](NC(=O)[C@H](CCCNC(=N)N)NC(=O)[C@H](C)NC(=O)[C@@H]2Cc4ccccc4N2C(=O)[C@H](Cc2c[nH]c4ccccc24)NC(=O)[C@H](CO)NC1=O)C(=O)N[C@@H](CC(C)C)C(=O)N[C@@H](Cc1c[nH]cn1)C(=O)N[C@@H](CCC(N)=O)C(=O)N[C@@H](CC(=O)O)C(=O)N[C@@H](CC(C)C)C(=O)N[C@H](C(N)=O)CSC3 [Ac-(06-34-18) Ind3] (Ac-CSW[X1]ARCLHQDLC-NH2; linker 1-7-13 via TBMB)
2 days	CCCC1(CCC)NC(=O)[C@@H](NC(C)=O)CSCc2cc3cc(c2)CSC[C@H](NC(=O)[C@H](CCCNC(=N)N)NC(=O)[C@H](C)NC(=O)[C@@H]2CCCN2C(=O)[C@H](Cc2c[nH]c4ccccc24)NC1=O)C(=O)N[C@@H](CC(C)C)C(=O)N[C@@H](Cc1c[nH]cn1)C(=O)N[C@@H](CCC(N)=O)C(=O)N[C@@H](CC(=O)O)C(=O)N[C@@H](CC(C)C)C(=O)N[C@H](C(N)=O)CSC3 [Ac-(06-34-18) Dpg1] (Ac-C[Dpg]WPARCLHQDLC-NH2; linker 1-7-13 via TBMB)
2 days	CC(=O)N[C@H]1CSCc2cc3cc(c2)CSC[C@H](NC(=O)[C@H](CCCNC(=N)N)NC(=O)[C@H](C)NC(=O)[C@@H]2CCCN2C(=O)[C@H](CC2CCCCC2)NC(=O)[C@H](CO)NC1=O)C(=O)N[C@@H](CC(C)C)C(=O)N[C@@H](Cc1c[nH]cn1)C(=O)N[C@@H](CCC(N)=O)C(=O)N[C@@H](CC(=O)O)C(=O)N[C@@H](CC(C)C)C(=O)N[C@H](C(N)=O)CSC3 [Ac-(06-34-18) Cha2] (Ac-CS[Cha]PARCLHQDLC-NH2; linker 1-7-13 via TBMB)
